The numbers were not newly measured in patent US20050009005A1, “Methods of using quantitative lipid metabolome data” (Lipomics Technologies, Inc., priority 2001, published 2005), which cites them from elsewhere.

Structures are written as SMILES.

For this data set the following is noted: patients taking rosiglitazone; Fuchtenbebusch et al. 2000; cited from earlier work.

Regarding `CN(CCOc1ccc(CC2SC(=O)NC2=O)cc1)c1ccccn1` (stereo not shown) [rosiglitazone], the “body weight of patients” value is recorded as “gain weight”.
